One test has as its system cytokine production. The following applies: cited from earlier work.
For the next test, the system named is NF-κB. The following applies: cited from earlier work.
The target in test [1] is T1, binding between SRC-1 and PPAR gamma2 proteins (Homo sapiens, UniProt P37231).
T1 construct: made in house; host or cells: E. coli (pGEX4T-1/PPARgamma2, KCTC 10190BP; pET28a/SRC-1, KCTC 10191BP)
The experiment in a line: ELISA of binding between SRC-1 and PPAR gamma2. The test is classed as biochemical. Particulars: 8 μg/ml SRC-1 coated, GST-PPAR gamma2 lysate diluted 64-fold, ligand at different concentrations, FIG. 7B. The protocol:
To examine the effect of PPAR gamma2 protein concentration on the binding between SRC-1 and PPAR gamma2 proteins, the following test was conducted. […] Also, this procedure was repeated three times, and a GST-fused protein which had not been bound to SRC-1 protein was used as a control group. […] Furthermore, to examine the effect of PPAR gamma2 ligand concentration on the binding between SRC-1 and PPAR gamma2 proteins, the following test was conducted. 8 μg/ml SRC-1 was coated on a plate, and E. coli lysate was diluted 64-fold and added to the plate. Then, indomethacin, a PPAR gamma2 ligand, was added to the plate at a different concentration.
His-SRC-1 protein was diluted with 0.1 M sodium carbonate buffer (pH 9.6) to a concentration of about 800 ng/well. 100 μl of the protein dilution was loaded into each well of an ELISA plate, and coated on the plate overnight at 4° C. The coated plate was washed three times with PBS (containing 0.05% Tween®-20), and added with 3% skimmed-PBST solution and left to stand overnight at 4° C. or for 2 hours at room temperature. A soluble fraction of GST-fused PPAR gamma2 was diluted […], and 50 μl of the dilution was added to each well of the plate. Indomethacin, a PPAR gamma2 agonist, was added at 1 μM, 10 μM and 100 μM. […]

For a further test, the target named is T2, PPAR gamma (Homo sapiens, UniProt P37231).
T2 sequence (P37231 1-505): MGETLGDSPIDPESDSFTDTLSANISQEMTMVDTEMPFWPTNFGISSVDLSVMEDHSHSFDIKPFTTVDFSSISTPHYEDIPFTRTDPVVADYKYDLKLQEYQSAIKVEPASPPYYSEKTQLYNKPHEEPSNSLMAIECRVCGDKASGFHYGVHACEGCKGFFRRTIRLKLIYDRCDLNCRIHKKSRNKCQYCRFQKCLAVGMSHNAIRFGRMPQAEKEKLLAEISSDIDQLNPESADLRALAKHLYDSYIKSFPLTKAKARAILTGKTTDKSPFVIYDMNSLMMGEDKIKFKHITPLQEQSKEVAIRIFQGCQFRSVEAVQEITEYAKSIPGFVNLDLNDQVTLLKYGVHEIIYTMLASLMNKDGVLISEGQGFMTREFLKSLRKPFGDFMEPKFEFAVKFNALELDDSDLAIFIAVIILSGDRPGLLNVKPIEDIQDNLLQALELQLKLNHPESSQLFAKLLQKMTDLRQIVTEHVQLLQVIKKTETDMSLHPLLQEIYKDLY
Particulars: components of oxLDL; cited from earlier work.

Structures are written as SMILES. Entries after “also recorded” stand apart in the source; their conditions may differ.

T1 sequence (Q15788 whole entry partner, one chain of several): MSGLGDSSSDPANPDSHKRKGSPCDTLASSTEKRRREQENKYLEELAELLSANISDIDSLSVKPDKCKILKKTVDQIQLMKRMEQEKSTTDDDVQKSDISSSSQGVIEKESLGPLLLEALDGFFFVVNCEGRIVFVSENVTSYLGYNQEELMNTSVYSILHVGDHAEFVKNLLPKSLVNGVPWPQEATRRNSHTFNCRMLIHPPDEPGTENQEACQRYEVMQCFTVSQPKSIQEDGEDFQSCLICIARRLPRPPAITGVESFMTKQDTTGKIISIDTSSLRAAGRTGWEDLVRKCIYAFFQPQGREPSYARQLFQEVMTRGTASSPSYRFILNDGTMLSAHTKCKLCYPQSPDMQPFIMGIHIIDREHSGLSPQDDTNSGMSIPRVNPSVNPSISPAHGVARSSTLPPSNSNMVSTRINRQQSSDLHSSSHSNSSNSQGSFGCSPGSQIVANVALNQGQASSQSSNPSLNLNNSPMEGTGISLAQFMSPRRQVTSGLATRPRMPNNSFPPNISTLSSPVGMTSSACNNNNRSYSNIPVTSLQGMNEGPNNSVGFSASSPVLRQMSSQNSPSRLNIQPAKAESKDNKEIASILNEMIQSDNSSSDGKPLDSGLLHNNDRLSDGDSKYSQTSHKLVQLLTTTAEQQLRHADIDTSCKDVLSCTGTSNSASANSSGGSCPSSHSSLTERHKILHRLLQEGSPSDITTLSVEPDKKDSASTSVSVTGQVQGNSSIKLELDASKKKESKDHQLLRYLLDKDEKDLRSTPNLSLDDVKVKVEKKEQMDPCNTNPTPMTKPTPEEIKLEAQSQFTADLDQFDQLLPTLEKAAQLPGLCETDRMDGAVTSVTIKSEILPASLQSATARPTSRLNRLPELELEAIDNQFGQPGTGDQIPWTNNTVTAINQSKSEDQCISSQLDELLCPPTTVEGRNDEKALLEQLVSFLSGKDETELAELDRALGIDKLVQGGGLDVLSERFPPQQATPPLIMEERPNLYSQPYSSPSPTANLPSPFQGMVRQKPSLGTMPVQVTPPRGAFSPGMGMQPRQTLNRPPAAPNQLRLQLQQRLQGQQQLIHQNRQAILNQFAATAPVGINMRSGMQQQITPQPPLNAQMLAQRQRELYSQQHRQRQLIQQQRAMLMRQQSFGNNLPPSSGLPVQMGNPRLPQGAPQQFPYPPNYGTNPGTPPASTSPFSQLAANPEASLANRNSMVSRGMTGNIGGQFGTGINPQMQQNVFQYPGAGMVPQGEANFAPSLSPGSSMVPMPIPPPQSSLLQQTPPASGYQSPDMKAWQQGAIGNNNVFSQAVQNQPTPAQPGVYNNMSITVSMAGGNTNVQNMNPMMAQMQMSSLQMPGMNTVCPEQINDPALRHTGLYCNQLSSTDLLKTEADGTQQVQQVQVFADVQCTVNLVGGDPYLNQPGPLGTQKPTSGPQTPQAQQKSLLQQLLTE

On to `CCCCC/C=C/C=C1/C(=O)C=C[C@@H]1C/C=C\CCCC(=O)O` [15d-PGJ2], for which the “cytokine production in embryonic stem cells” value with cytokine production (PPAR gamma+/+, +/- or -/- embryonic stem cells) is listed as “inhibited cytokine production”. Further, the “cytokine production of monocytes or macrophages in vitro” value in the test with cytokine production (monocytes or macrophages) is listed as “the most powerful inhibitor”. In addition, in the test on NF-κB, the NF-κB activity result was “inhibit NF-κB activity”.

Turning to `COc1ccc2c(c1)c(CC(=O)O)c(C)n2C(=O)c1ccc(Cl)cc1` [indomethacin], the “binding between SRC-1 and PPAR gamma2” value in test [1] is recorded as “dependent on the concentration of indomethacin; also recorded: increased”.

For `CCCCC/C=C\C=C\C(O)CCCCCCCC(=O)O` (stereo not drawn) [9-HODE], the “PPAR gamma agonist activity” value at PPAR gamma is on record as “PPAR gamma agonists”.

Regarding `CCCCCC(O)/C=C/C=C\CCCCCCCC(=O)O` (stereo not drawn) [13-HODE], the “PPAR gamma agonist activity” value at PPAR gamma is “PPAR gamma agonists”.

The record behind these values is US7387895B2, “Monoclonal antibody specific for PPAR gamma, hydridoma cell line producing the same, and method for detecting regulator related to diseases, including inflammation, cancer and metabolic diseases, using the same” (Korea Research Institute of Bioscience and Biotechnology, priority 2003, dated 2008).
